Source: paper PMC6135396, “Repurposing antimalarial aminoquinolines and related compounds for treatment of retinal neovascularization” (PLoS ONE, 2018)

What was measured:
[1] = Hepatic microsome stability, human; type: in vitro ADME; settings: liver microsomes, pH 7.4, terminal half-life of a two-phase exponential decay, read-out: Hepatic microsome stability T1/2
Procedure: (§1) Hepatic microsomes stability assays were performed as reported before. […] After preincubation at 37°C for 10 min, enzyme reactions were initiated by adding 120 μL of NADPH-generating system (2 mM NADP^+, 10 mM glucose-6-phosphate, 0.4 U/ml glucose-6-phosphate dehydrogenase, and 5 mM MgCl2) in the presence of 100 mM potassium phosphate buffer (pH 7.4). The final concentration of each model compound used was 1 μM. The microsomal concentrations used were 1.0 mg/mL. Compounds were incubated in microsomes for 0, 5, 15, 30 and 60 min. The reactions were stopped by the addition of ice cold ACN and the reaction mixtures were centrifuged at 10,000g for 10 min before the supernatant was removed for analysis.
(§2) Except for the primary assay in the HTS campaign, all experiments were repeated at least three times. Results are expressed as mean ± SEM. The Mann-Whitney test was used to determine statistical significance of the densitometry data of Western blot analysis. Unpaired two-tailed Student’s t-test was performed for the significance of the results of ELISA and in vitro tubule formation assay. ANOVA was used to determine the significance in vivo CNV models using the Tukey post-hoc test for multiple comparisons. […] T1/2 was calculated using the best fit curve resulting from non-linear (human) or linear (mouse and rat) regression analyses using Prism 7.

[2] = Hepatic microsome stability, rat; type: in vitro ADME; settings: liver microsomes, pH 7.4, single phase, read-out: Hepatic microsome stability T1/2
Procedure: as §1, §2

parental CHO-K1 cells = assay: Parental cAMP counter assay (cells lacking APJ); type: cell-based; settings: Cricetulus griseus
Procedure: To identify small-molecule antagonists of the apelin receptor (APJ) we interrogated the SBP compound file of ~425,000 compounds using CHO-k1-AGTRL1 cells overexpressing human APJ and a competitive immunoassay of intracellular cAMP [59]. The compound file was screened at a concentration of 10 μM. For all 333 plates assayed, the average Z-factor = 0.68 and the average S/B = 8.2, indicating a robust assay performance. […] There were 2550 compounds that met this criterion, representing a hit rate of ~0.6%. […] Included in this hit set was a series of aminoquinolines, exemplified by compound 1 (Fig 1B). […] As part of an initial hit-validation strategy, these compounds and three other commercially available analogs were purchased for further testing. The purity and identify of all compounds were confirmed by NMR and LC-MS, and they were subsequently retested in a battery of cell-based assays of APJ function and counter screens. […] (Fig 1D).
PathHunter™ GPCR Arrestin and cAMP Hunter™ cell lines (DiscoveRx Corp., Fremont, CA) were used to assay G-protein-dependent signaling and β-arrestin recruitment to APJ. CHO-K1 cells stably expressing APJ (CHO-K1-APJ) or AT1 (CHO-K1-AT1) with β-arrestin/β-galactosidase enzyme fragment complementation constructs were maintained in HAM's F-12 medium (Hyclone, Logan, UT) supplemented with 10% FBS, 1X Penicillin-Streptomycin-Glutamine (Invitrogen; Carlsbad, CA), 300 μg/ml hygromycin (EMD Biosciences, San Diego, CA), and 800 μg/ml Geneticin (Cellgro, Manassas, VA). Primary Human Retinal Microvascular Endothelial Cells (HRECs) were purchased from Cell Systems (Kirkland, WA) and maintained in Complete Classic Medium with CultureBoost-R™ (Cell Systems). Parent CHO-K1 cells were obtained from ATCC and maintained in HAM’s F-12 medium supplemented with 10% FBS, and1X Penicillin-Streptomycin-Glutamine (Invitrogen; Carlsbad, CA). All cells were incubated at 37°C (5% CO2, 95% relative humidity) and maintained at less than 70% to 80% confluence (approximately 75,000 cells/cm^2). Cell heterologously expressing APJ or AT1 were not used after 10 passages. HRECs were not used in any experiments after five passages.
All reagents unless otherwise specified are components of the cAMP HitHunter (DiscoveRx) kit. Ligand Buffer + 60 μM Forskolin (Cayman Chemical, Ann Arbor, MI) was made fresh on the day of the experiment and used for the dilution of positive and negative controls as well as all peptides. CHO-K1-APJ cells were dispensed into a 1536-well tissue culture microplate (Corning, Corning, NY) using a Multidrop at a seeding density of 1,000 cells/well and returned to the incubator. The next day, the cell culture media was removed and replaced with 15 μl/well of assay buffer (1X HBSS, 10 mM HEPES) containing anti-cAMP antibody (DiscoveRx). […] Plates were incubated at room temperature in the dark for 3 hours prior to chemiluminescence detection on an EnVision (Perkin Elmer) using a counting time of 1 s/well.

[3] = system: choroidal neovascularization (CNV) lesions; assay: Laser-induced CNV mouse model; type: in vivo; settings: for CNV lesion volume vs vehicle control: two injections, choroidal flatmounts, 14 days post-laser
[4] = system: human retinal microvascular endothelial cells (HRECs); assay: In vitro HREC tube formation assay; type: cell-based
Procedure: In vitro tube formation assays were carried out as previously described. Briefly, near confluent microvascular endothelial cells were pretreated with VEGF (100 ng/ml) for 2 h and then treated for 24 h with test compounds at serial concentrations, as indicated. Cells without VEGF treatment or with VEGF only were used as control. The cells were then detached and plated sparsely (2.5 ×10^4/well) on 24-well plates coated with 12.5% (v/v) Matrigel (BD, Franklin Lakes, NJ) and left overnight. The medium was then aspirated and 250 μl/well of 12.5% Matrigel was overlaid on the cells for 2 h to allow the polymerization of Matrigel, followed by addition of 500 μl/well of basal medium MCD131 with 10% fetal calf serum (FCS) for 24 h. The following day, the culture plates were observed under a phase contrast microscope and photographed at random in five fields (×10). The tubule length (mm/mm^2) per microscope field was quantified.

Plasma stability, mouse = type: in vitro ADME
[5] = Plasma-protein binding, rat; type: in vitro ADME
[6] = Cytotoxicity, ATP-Lite, HRECs; type: cell-based; settings: human, HREC cells; HRECs; read-out: Cytotoxicity LC50
Procedure: (§3) Fa2N-4 immortalized human hepatocytes (Xenotech) or HREC cells were grown to subconfluency in wells of a 96-well plate and exposed to different concentrations of compounds for 24 h after which the cells were washed and the media and compounds replaced. The cells were returned to the incubator for another 24 h. The extent of cell death (cell lysis) was determined by ATP-Lite reagent (Perkin-Elmer).

HRECs = assay: Cytotoxicity, ATP-Lite, HRECs; type: cell-based; settings: tested up to 100 μM
Procedure: as §3

## CCN(CC)Cc1cc(Nc2ccnc3cc(Cl)ccc23)ccc1O [AQ, amodiaquine]
[1]
  half-life at 1 μM: 17 min
[2]
  half-life at 1 μM: 38.9 min
Parental CHO-K1 cells
  IC50: > 99 µM
[3]; 14 days post-laser injury, intravitreal AQ 5.0-50.0 μg
  CNV lesion size by optical coherence tomography vs vehicle treated eyes: significantly smaller
[3]; AQ 5.0 μg intravitreal
  CNV lesion volume vs vehicle control: not a statistically significant reduction
[3]; AQ 10.0 μg intravitreal
  CNV lesion volume vs vehicle control: not a statistically significant reduction
[3]; AQ 25.0 μg intravitreal
  CNV lesion volume vs vehicle control: statistically significant decrease
[3]; AQ 50.0 μg intravitreal
  CNV lesion volume vs vehicle control: an even greater decrease
[3]; intravitreal AQ
  CNV lesion size in confocal images of agglutinin-stained choroidal flatmounts: reduction in CNV lesion size at 10μg AQ and higher
[4]; Ap13-induced, concentration-dependent
  Effect on Ap13-dependent increase in HREC tube formation: blocked Ap13-dependent increases in tube formation
[4]; VEGF 100 ng/mL, absence of exogenous Ap13
  Effect on VEGF-induced HREC tube formation: blocked VEGF-induced tube formation
Plasma stability, mouse
  Plasma stability: 36.1 % remaining at 3 hrs
[5]; 1 μM
  Plasma-protein binding: 75.3 % bound
[5]; 10 μM
  Plasma-protein binding: 76.8 % bound
[6]
  CC50 at 48 h: > 100 µM
HRECs
  Cytotoxicity to HRECs: Neither ML221 nor AQ were significantly toxic
